Assays:
Type in all cases: in vivo
Set-up in all cases: key: 0 is no effect; 10 is complete control
[1] = system: crabgrass (Digitaria spp.); assay: Test A pre-/postemergence; details: 0 to 10 scale
Method: (§1) Seeds of barnyardgrass (Echinochloa crus-galli), crabgrass (Digitaria spp.), morningglory (Ipomoea spp.), and velvetleaf (Abutilon theophrasti) were planted into a sandy loam soil and treated preemergence by soil drench with test chemicals formulated in a non-phytotoxic solvent mixture which includes a surfactant. At the same time, these crop and weed species were also treated postemergence sprayed to runoff, with test chemicals formulated in the same manner. Plants ranged in height from two to eighteen cm and were in the one to two leaf stage for the postemergence treatment. Treated plants and untreated controls were maintained in a greenhouse for approximately eleven days, after which all treated plants were compared to untreated controls and visually evaluated for injury. Plant response ratings, summarized in Table A, are based on a 0 to 10 scale where 0 is no effect and 10 is complete control. A dash (−) response means no test results.

[2] = system: velvetleaf (Abutilon theophrasti); assay: Test A pre-/postemergence; details: 0 to 10 scale
Method: as §1

[3] = system: morningglory (Ipomoea spp.); assay: Test A pre-/postemergence; details: 0 to 10 scale
Method: as §1

[4] = system: barnyardgrass (Echinochloa crus-galli); assay: Test A pre-/postemergence; details: 0 to 10 scale
Method: as §1

[5] = system: blackgrass (Alopecurus myosuroides); assay: Test B pre-/postemergence
Method in brief: (§2)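 Seeds were planted and sprayed preemergence, while plants at 2 to 18 cm (1- to 4-leaf stage) were sprayed postemergence at the same time, with test chemical in a non-phytotoxic solvent mixture containing surfactant. After twelve to sixteen days in a greenhouse, injury was rated visually against untreated controls on a 0–10 scale.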

[6] = system: velvetleaf (Abutilon theophrasti); assay: Test B pre-/postemergence
Method in brief: as §2

[7] = system: purple nutsedge (Cyperus rotundus); assay: Test B pre-/postemergence
Method in brief: as §2

[8] = system: momingglory (Ipomoea hederacea); assay: Test B pre-/postemergence
Method in brief: as §2

rape (Brassica napus) = assay: Test B pre-/postemergence
Method in brief: as §2

[9] = system: broadleaf signalgrass (Brachiaria decumbens); assay: Test B pre-/postemergence
Method in brief: as §2

[10] = system: giant foxtail (Setaria faberii); assay: Test B pre-/postemergence
Method in brief: as §2

[11] = system: bedstraw (Galium aparine); assay: Test B pre-/postemergence
Method in brief: as §2

[12] = system: sugar beet (Beta vulgaris); assay: Test B pre-/postemergence
Method in brief: as §2

wild oat (Avena fatua) = assay: Test B pre-/postemergence
Method in brief: as §2

[13] = system: pigweed (Amaranthus retroflexus); assay: Test B pre-/postemergence
Method in brief: as §2

[14] = system: wheat (Triticum aestivum); assay: Test B pre-/postemergence
Method in brief: as §2

[15] = system: crabgrass (Digitaria sanguinalis); assay: Test B pre-/postemergence
Method in brief: as §2

corn (Zea mays) = assay: Test B pre-/postemergence
Method in brief: as §2

soybean (Glycine max) = assay: Test B pre-/postemergence
Method in brief: as §2

[16] = system: cocklebur (Xanthium strumarium); assay: Test B pre-/postemergence
Method in brief: as §2

[17] = system: smallflower flatsedge (Cyperus difformis); assay: Test B flood test
Method in brief: (§3)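 Plants were grown to the 2-leaf stage before treatment with test chemical, then held in a greenhouse for twelve to sixteen days. Injury was visually rated against untreated controls on a 0–10 scale, where 0 is no effect and 10 is complete control.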

rice (Oryza sativa) = assay: Test B flood test
Method in brief: as §3

[18] = system: duck salad (Heteranthera limosa); assay: Test B flood test
Method in brief: as §3

[19] = system: bamyardgrass (Echinochloa crus-galli); assay: Test B flood test
Method in brief: as §3

[20] = PRE SOIL DRENCH, Rate 1000 g/ha
[21] = PRE SOIL DRENCH, Rate 2000 g/ha
[22] = postemergence SPRAYED TO RUNOFF, Rate 500 g/ha
[23] = postemergence SPRAYED TO RUNOFF, Rate 1000 g/ha
[24] = Preemergence, Rate 62 g/ha, scale of 0 to 10
[25] = Rate 62 g/ha, Postemergence (flood test)
[26] = Rate 125 g/ha, Postemergence section (flood test species)
[27] = Rate 250 g/ha, Postemergence (flood test species)

SMILES: Cc1cnc(-c2ccccc2)nc1Cn1cnc(C(F)(F)F)c1 [Compound 8]
- Plant response rating, Crabgrass [1, 20]: 9
- Plant response rating, Crabgrass [1, 21]: 10
- Plant response rating, Crabgrass [1, 22]: 8
- Plant response rating, Crabgrass [1, 23]: 5
- Plant response rating, Velvetleaf [2, 20]: 2
- Plant response rating, Velvetleaf [2, 21]: 3
- Plant response rating, Velvetleaf [2, 22]: 1
- Plant response rating, Velvetleaf [2, 23]: 2
- Plant response rating, Morningglory [3, 20]: 9
- Plant response rating, Morningglory [3, 21]: 8
- Plant response rating, Morningglory [3, 22]: 3
- Plant response rating, Morningglory [3, 23]: 7
- Plant response rating, Barnyardgrass [4, 20]: 4
- Plant response rating, Barnyardgrass [4, 21]: 7
- Plant response rating, Barnyardgrass [4, 22]: 3
- Plant response rating, Barnyardgrass [4, 23]: 3

SMILES: N#Cc1ccc(-c2nccc(C(=O)c3cccc(C(F)(F)F)c3)n2)cc1 [Compound 78]
- Plant response rating, Blackgrass [5, 24]: 0
- Blackgrass plant response rating ([5]; Rate 62 g/ha, Postemergence): 0
- Blackgrass plant response rating ([5]; Rate 125 g/ha, Postemergence): 0
- Plant response rating, Blackgrass ([5]; Rate 125 g/ha, Preemergence): 0
- Plant response rating, Blackgrass ([5]; Rate 250 g/ha, Postemergence): 1
- Plant response rating, Blackgrass ([5]; Rate 250 g/ha, Preemergence): 0
- Plant response rating, Velvetleaf [6, 24]: 0
- Velvetleaf plant response rating ([6]; Rate 62 g/ha, Postemergence): 0
- Velvetleaf plant response rating ([6]; Rate 125 g/ha, Postemergence): 0
- Plant response rating, Velvetleaf ([6]; Rate 125 g/ha, Preemergence): 0
- Plant response rating, Velvetleaf ([6]; Rate 250 g/ha, Postemergence): 0
- Plant response rating, Velvetleaf ([6]; Rate 250 g/ha, Preemergence): 0
- Plant response rating, Nutsedge [7, 24]: 0
- Nutsedge plant response rating ([7]; Rate 62 g/ha, Postemergence): 0
- Nutsedge plant response rating ([7]; Rate 125 g/ha, Postemergence): 0
- Plant response rating, Nutsedge ([7]; Rate 125 g/ha, Preemergence): 0
- Plant response rating, Nutsedge ([7]; Rate 250 g/ha, Postemergence): 0
- Plant response rating, Nutsedge ([7]; Rate 250 g/ha, Preemergence): 0
- Plant response rating, Morningglory [8, 24]: 0
- Morningglory plant response rating ([8]; Rate 62 g/ha, Postemergence): 0
- Morningglory plant response rating ([8]; Rate 125 g/ha, Postemergence): 0
- Plant response rating, Morningglory ([8]; Rate 125 g/ha, Preemergence): 0
- Plant response rating, Morningglory ([8]; Rate 250 g/ha, Postemergence): 2
- Plant response rating, Morningglory ([8]; Rate 250 g/ha, Preemergence): 0
- Plant response rating, Rape (rape (Brassica napus); [24]): 0
- Rape plant response rating (rape (Brassica napus); Rate 62 g/ha, Postemergence): 0
- Rape plant response rating (rape (Brassica napus); Rate 125 g/ha, Postemergence): 0
- Plant response rating, Rape (rape (Brassica napus); Rate 125 g/ha, Preemergence): 0
- Plant response rating, Rape (rape (Brassica napus); Rate 250 g/ha, Postemergence): 0
- Plant response rating, Rape (rape (Brassica napus); Rate 250 g/ha, Preemergence): 0
- B. signalgrass plant response rating ([9]; Rate 62 g/ha, Postemergence): 0
- B. signalgrass plant response rating ([9]; Rate 62 g/ha, Preemergence): 0
- B. signalgrass plant response rating ([9]; Rate 125 g/ha, Postemergence): 0
- Plant response rating, B. signalgrass ([9]; Rate 125 g/ha, Preemergence): 0
- Plant response rating, B. signalgrass ([9]; Rate 250 g/ha, Postemergence): 1
- Plant response rating, B. signalgrass ([9]; Rate 250 g/ha, Preemergence): 0
- Plant response rating, Giant foxtail [10, 24]: 0
- Giant foxtail plant response rating ([10]; Rate 62 g/ha, Postemergence): 0
- Giant foxtail plant response rating ([10]; Rate 125 g/ha, Postemergence): 0
- Plant response rating, Giant foxtail ([10]; Rate 125 g/ha, Preemergence): 0
- Plant response rating, Giant foxtail ([10]; Rate 250 g/ha, Postemergence): 0
- Plant response rating, Giant foxtail ([10]; Rate 250 g/ha, Preemergence): 0
- Plant response rating, Bedstraw [11, 24]: 0
- Bedstraw plant response rating ([11]; Rate 62 g/ha, Postemergence): 0
- Bedstraw plant response rating ([11]; Rate 125 g/ha, Postemergence): 0
- Plant response rating, Bedstraw ([11]; Rate 125 g/ha, Preemergence): 0
- Plant response rating, Bedstraw ([11]; Rate 250 g/ha, Postemergence): 0
- Plant response rating, Bedstraw ([11]; Rate 250 g/ha, Preemergence): 0
- Plant response rating, Sugarbeets [12, 24]: 0
- Sugarbeets plant response rating ([12]; Rate 62 g/ha, Postemergence): 0
- Sugarbeets plant response rating ([12]; Rate 125 g/ha, Postemergence): 0
- Plant response rating, Sugarbeets ([12]; Rate 125 g/ha, Preemergence): 0
- Plant response rating, Sugarbeets ([12]; Rate 250 g/ha, Postemergence): 0
- Plant response rating, Sugarbeets ([12]; Rate 250 g/ha, Preemergence): 0
- Plant response rating, Wild oats (wild oat (Avena fatua); [24]): 0
- Wild oats plant response rating (wild oat (Avena fatua); Rate 62 g/ha, Postemergence): 0
- Wild oats plant response rating (wild oat (Avena fatua); Rate 125 g/ha, Postemergence): 0
- Plant response rating, Wild oats (wild oat (Avena fatua); Rate 125 g/ha, Preemergence): 0
- Plant response rating, Wild oats (wild oat (Avena fatua); Rate 250 g/ha, Postemergence): 0
- Plant response rating, Wild oats (wild oat (Avena fatua); Rate 250 g/ha, Preemergence): 0
- Plant response rating, Redroot pigweed [13, 24]: 0
- Redroot pigweed plant response rating ([13]; Rate 62 g/ha, Postemergence): 0
- Redroot pigweed plant response rating ([13]; Rate 125 g/ha, Postemergence): 0
- Plant response rating, Redroot pigweed ([13]; Rate 125 g/ha, Preemergence): 0
- Plant response rating, Redroot pigweed ([13]; Rate 250 g/ha, Postemergence): 4
- Plant response rating, Redroot pigweed ([13]; Rate 250 g/ha, Preemergence): 0
- Plant response rating, Wheat [14, 24]: 0
- Wheat plant response rating ([14]; Rate 62 g/ha, Postemergence): 0
- Wheat plant response rating ([14]; Rate 125 g/ha, Postemergence): 0
- Plant response rating, Wheat ([14]; Rate 125 g/ha, Preemergence): 0
- Plant response rating, Wheat ([14]; Rate 250 g/ha, Postemergence): 0
- Plant response rating, Wheat ([14]; Rate 250 g/ha, Preemergence): 0
- Plant response rating, Crabgrass [15, 24]: 0
- Crabgrass plant response rating ([15]; Rate 62 g/ha, Postemergence): 0
- Crabgrass plant response rating ([15]; Rate 125 g/ha, Postemergence): 0
- Plant response rating, Crabgrass ([15]; Rate 125 g/ha, Preemergence): 0
- Plant response rating, Crabgrass ([15]; Rate 250 g/ha, Postemergence): 0
- Plant response rating, Crabgrass ([15]; Rate 250 g/ha, Preemergence): 0
- Plant response rating, Corn (corn (Zea mays); [24]): 0
- Corn plant response rating (corn (Zea mays); Rate 62 g/ha, Postemergence): 0
- Corn plant response rating (corn (Zea mays); Rate 125 g/ha, Postemergence): 0
- Plant response rating, Corn (corn (Zea mays); Rate 125 g/ha, Preemergence): 0
- Plant response rating, Corn (corn (Zea mays); Rate 250 g/ha, Postemergence): 2
- Plant response rating, Corn (corn (Zea mays); Rate 250 g/ha, Preemergence): 0
- Plant response rating, Soybean (soybean (Glycine max); [24]): 0
- Soybean plant response rating (soybean (Glycine max); Rate 62 g/ha, Postemergence): 0
- Soybean plant response rating (soybean (Glycine max); Rate 125 g/ha, Postemergence): 0
- Plant response rating, Soybean (soybean (Glycine max); Rate 125 g/ha, Preemergence): 0
- Plant response rating, Soybean (soybean (Glycine max); Rate 250 g/ha, Postemergence): 0
- Plant response rating, Soybean (soybean (Glycine max); Rate 250 g/ha, Preemergence): 0
- Plant response rating, Cocklebur [16, 24]: 0
- Cocklebur plant response rating ([16]; Rate 62 g/ha, Postemergence): 0
- Cocklebur plant response rating ([16]; Rate 125 g/ha, Postemergence): 0
- Plant response rating, Cocklebur ([16]; Rate 125 g/ha, Preemergence): 0
- Plant response rating, Cocklebur ([16]; Rate 250 g/ha, Postemergence): 0
- Plant response rating, Cocklebur ([16]; Rate 250 g/ha, Preemergence): 0
- S. Flatsedge plant response rating [17, 25]: 0
- S. Flatsedge plant response rating [17, 26]: 0
- Plant response rating, S. Flatsedge [17, 27]: 0
- Rice plant response rating (rice (Oryza sativa); [25]): 0
- Rice plant response rating (rice (Oryza sativa); [26]): 0
- Plant response rating, Rice (rice (Oryza sativa); [27]): 0
- Ducksalad plant response rating [18, 25]: 0
- Ducksalad plant response rating [18, 26]: 0
- Plant response rating, Ducksalad [18, 27]: 0
- Barnyardgrass plant response rating [19, 25]: 0
- Barnyardgrass plant response rating [19, 26]: 0
- Plant response rating, Barnyardgrass [19, 27]: 0
